Here are results for 26 molecules from the SangsterLogP compilation.

Usually logD stands for the decadic logarithm of the distribution of all forms, ionised or not, between an organic phase and buffer at a given pH. The term logP denotes the decadic logarithm of the partition coefficient of the neutral form, usually between octanol and water. A lower logP goes with a more hydrophilic compound.

The conditions of the series: for logD: pH 2.0.

Structures are written as SMILES.

As to `O=C(OCC(=O)N1CCC1C(=O)O)c1ccccc1` (stereo unspecified), the logD was found to be 0.79. `CC(C)NC(=O)COC(=O)c1ccccc1` returned a logP of 1.73. The same measure, in the same setting: with `CCCCCCN(CCCCCC)C(=O)COC(=O)c1ccccc1` the figure was 6.53; with `CNC(=O)COC(=O)c1ccccc1`, 0.99; with `O=C(OCC(=O)N1CCOCC1)c1ccccc1`, 0.9. Still for that read-out and setting: next, `O=C(OCC(=O)N1CCCCC1)c1ccccc1`: 1.95. Same read-out and setting: with `CC(NC(=O)COC(=O)c1ccccc1)C(N)=O` (stereo unspecified) the figure was 0.42; with `CCN(CC)C(=O)C(C)OC(=O)c1ccccc1` (stereo unspecified), 2.3. `CC(O)CN(CC(C)O)C(=O)COC(=O)c1ccccc1` (stereo unspecified): the logP turned out to be 0.66.

`COCCN(CCOC)C(=O)COC(=O)c1ccccc1` yielded a logP of 1.28. Still for that read-out and setting: with `O=C(COC(=O)c1ccccc1)NC(CO)(CO)CO` the figure was 0.25; with `NC(=O)C1CCCN1C(=O)COC(=O)c1ccccc1` (stereo unspecified), 0.2; with `CC(=O)NC(=O)COC(=O)c1ccccc1`, 1.24.

As to `CC(=O)N(C)CCOC(=O)c1ccccc1`, the logP amounted to 1.24. Still for that read-out and setting: with `CCC1CCCCN1C(=O)COC(=O)c1ccccc1` (stereo unspecified) the figure was 2.62; with `NC(=O)COC(=O)c1ccccc1`, 0.69. The same measure, in the same setting: next, `CCCCCCNC(=O)COC(=O)c1ccccc1`: 2.81; `CC(C)(C)NC(=O)COC(=O)c1ccccc1`: 2.26; `CCCNC(=O)COC(=O)c1ccccc1`: 1.88. On the same count and under the same terms, next, `CCCCNC(=O)COC(=O)c1ccccc1`: 2.36; `CCNC(=O)COC(=O)c1ccccc1`: 1.28. Consider `CC(=O)N(C)C(=O)COC(=O)c1ccccc1`, for which the logP was determined as 1.58. The same measure, in the same setting: with `C=CCN(CC=C)C(=O)COC(=O)c1ccccc1` the figure was 2.34; with `CCCCCCN(C)C(=O)COC(=O)c1ccccc1`, 2.99. Molecule `CN(CC(=O)O)C(=O)COC(=O)c1ccccc1` showed a logD of 0.67. In the case of `O=C(OCC(=O)N1CCC(O)CC1)c1ccccc1`, the logP was found to be 0.63.
